Laboratory results: ChEMBL document CHEMBL5523706, “Structure-based drug design of DNA minor groove binders and evaluation of their antibacterial and anticancer properties” (Eur J Med Chem, 2024)
In brackets after ≈: the same amount, converted by molar mass. Activity calls are given as the source filed them. No cut-off for these calls is given here.

Assays:
Salmonella enterica [1] = assay: Bactericidal activity against Salmonella enterica ATCC 14028 assessed as reduction in bacterial viability at 100 uM incubated for 2 hrs in autoclaved distilled water followed by culturing on agar for overnight; type: functional; conditions: ATCC 14028, 2 h
[2] = tested on: Panel NCI-60 (60 carcinoma cell lines); assay: Antitumor activity against human NCI-60 cells assessed as inhibition of cell growth at 10 uM incubated for 48 hrs by SRB assay; type: functional
NHDF = assay: Cytotoxicity against human HDF cells assessed as reduction in cell viability at 50 uM incubated for 24 hrs by MTT assay; type: toxicity, cell-based
Bacillus cereus [3] = assay: Antibacterial activity against Bacillus cereus assessed as reduction in bacteria-mediated cytopathogenicity pretreated with bacteria followed by incubation with human cells; type: functional
Bacillus cereus [4] = assay: Bactericidal activity against Bacillus cereus MTCC 131621 assessed as reduction in bacterial viability at 100 uM incubated for 2 hrs in autoclaved distilled water followed by culturing on agar for overnight; type: functional; conditions: MTCC 131621, 2 h
Serratia marcescens [5] = assay: Bactericidal activity against Serratia marcescens ATCC 13880 assessed as reduction in bacterial viability at 100 uM incubated for 2 hrs in autoclaved distilled water followed by culturing on agar for overnight; type: functional
[6] = Dissociation constant, pKa of the compound; type: physicochemical
Escherichia coli [7] = assay: Bactericidal activity against Escherichia coli K1 MTCC 710859 assessed as reduction in bacterial viability incubated for 2 hrs in autoclaved distilled water followed by culturing on agar for overnight; type: functional; conditions: K1 MTCC 710859, 2 h
Streptococcus pneumoniae [8] = assay: Bactericidal activity against Streptococcus pneumoniae ATCC 13883 assessed as reduction in bacterial viability at 100 uM incubated for 2 hrs in autoclaved distilled water followed by culturing on agar for overnight; type: functional; conditions: for inhibition at 100 µM: ATCC 13883, 2 h
Bacillus cereus [9] = assay: Bactericidal activity against Bacillus cereus MTCC 131621 assessed as reduction in bacterial viability incubated for 2 hrs in autoclaved distilled water followed by culturing on agar for overnight; type: functional; conditions: MTCC 131621, 2 h
Streptococcus pyogenes [10] = assay: Bactericidal activity against Streptococcus pyogenes ATCC 49399 assessed as reduction in bacterial viability incubated for 2 hrs in autoclaved distilled water followed by culturing on agar for overnight; type: functional; conditions: ATCC 49399, 2 h
Escherichia coli [11] = assay: Bactericidal activity against Escherichia coli K1 MTCC 710859 assessed as reduction in bacterial viability at 100 uM incubated for 2 hrs in autoclaved distilled water followed by culturing on agar for overnight; type: functional; conditions: for inhibition at 100 µM: K1 MTCC 710859, 2 h
Streptococcus pyogenes [12] = assay: Bactericidal activity against Streptococcus pyogenes ATCC 49399 assessed as reduction in bacterial viability at 100 uM incubated for 2 hrs in autoclaved distilled water followed by culturing on agar for overnight; type: functional; conditions: for inhibition at 100 µM: ATCC 49399, 2 h
DNA [13] = assay: Binding affinity to minor groove of d(5'-GCGACTAGTCGC3')2 duplex DNA (unknown origin) assessed as change in melting temperature at 2 equiv. in presence of 8 uM DNA measured at 30 to 100 degC by UV spectrophotometric analysis; type: nucleic-acid assay
Salmonella enterica [14] = assay: Antibacterial activity against Salmonella enterica assessed as reduction in bacteria-mediated cytopathogenicity pretreated with bacteria followed by incubation with human cells; type: functional
Streptococcus pneumoniae [15] = assay: Bactericidal activity against Streptococcus pneumoniae ATCC 13883 assessed as reduction in bacterial viability incubated for 2 hrs in autoclaved distilled water followed by culturing on agar for overnight; type: functional; conditions: ATCC 13883, 2 h
DNA [16] = assay: Binding affinity to d(5'-GCGACTAGTCGC-3')2 duplex DNA (unknown origin) assessed as change in entropy at 10 uM measured at 298K by isothermal titration calorimetry; type: nucleic-acid assay
DNA [17] = assay: Binding affinity to d(5'-GCGACTAGTCGC-3')2 duplex DNA (unknown origin) at 10 uM measured at 298K by isothermal titration calorimetry; type: nucleic-acid assay
DNA [18] = assay: Binding affinity to d(5'-GCGACTAGTCGC-3')2 duplex DNA (unknown origin) assessed as change in enthalpy at 10 uM measured at 298K by isothermal titration calorimetry; type: nucleic-acid assay
DNA [19] = assay: Binding affinity to d(5'-GCGACTAGTCGC-3')2 duplex DNA (unknown origin) at DNA to ligand stoichiometric ratio of 0.5:1 measured at 298K by isothermal titration calorimetry; type: nucleic-acid assay
Salmonella enterica [20] = assay: Bactericidal activity against Salmonella enterica ATCC 14028 assessed as reduction in bacterial viability incubated for 2 hrs in autoclaved distilled water followed by culturing on agar for overnight; type: functional; conditions: ATCC 14028, 2 h
DNA [21] = assay: Binding affinity to d(5'-GCGACTAGTCGC-3')2 duplex DNA (unknown origin) assessed as change in free energy at 10 uM measured at 298K by isothermal titration calorimetry; type: nucleic-acid assay
[22] = Cytotoxicity against human HDF cells assessed as reduction in cell viability at 50 uM incubated for 24 hrs by MTT assay relative to control; type: toxicity, cell-based; conditions: HDF cells (NHDF cell line), read-out: INH
Serratia marcescens [23] = assay: Bactericidal activity against Serratia marcescens ATCC 13880 assessed as reduction in bacterial viability incubated for 2 hrs in autoclaved distilled water followed by culturing on agar for overnight; type: functional; conditions: ATCC 13880, 2 h

Row | Structure (SMILES) | inhibition at 10 µM [2] [%] | Activity (NHDF) | inhibition (INH) (Bacillus cereus [3]) [%] | inhibition at 100 µM (Bacillus cereus [4]) [%] | Activity (Serratia marcescens [5]) | pKa [6] | ΔTm (DNA [13]) [°C] | inhibition (INH) (Salmonella enterica [14]) [%] | cytotoxicity at 24 h, 50 µM [22] [%] | further results
1 | Cn1cc(NC(=O)c2cc(NC(=O)c3ccc(/C=C/c4ccccc4)cc3)cn2C)cc1C(=O)NCCCN1CCOCC1 | 94.1 | Non-Toxic | 70 | 87 | inactive | 7.01 | 21 | 44 |  | inhibition at 100 µM (Salmonella enterica [1]): 95%; MIC90 (Escherichia coli [7]): 76 µM (≈ 45.2 µg/mL); inhibition at 100 µM (Streptococcus pneumoniae [8]): 100%; MIC50 (Bacillus cereus [9]): 37 µM (≈ 22 µg/mL); MIC90 (Bacillus cereus [9]): 34.3 µM (≈ 20.4 µg/mL); MIC90 (Streptococcus pyogenes [10]): 55 µM (≈ 32.7 µg/mL); inhibition at 100 µM (Escherichia coli [11]): 50%; inhibition at 100 µM (Streptococcus pyogenes [12]): 67%; MIC90 (Streptococcus pneumoniae [15]): 47 µM (≈ 28 µg/mL)
2 | CN(C)CCCNC(=O)c1cc(NC(=O)c2cc(NC(=O)c3ccc(/C=C/c4ccccc4)cc3)cn2C)cn1C | 64.1 | Toxic |  |  |  | 9.3 |  |  |  | 
3 | CC(C)c1sc(NC(=O)c2cc(NC(=O)c3cc(NC(=O)c4cscn4)cn3C)cn2C)nc1C(=O)NCCCN(C)C | 92.4 |  | 40 | 42 | inactive | 9.3 | 20 | 41 | 20 | TdeltaS (DNA [16]): -44.1 kJ/mol; K (DNA [17]): 2 10^6/M; deltaH (DNA [18]): -79.5 kJ/mol; Activity (DNA [19]): Active; MIC50 (Salmonella enterica [20]): 52 µM (≈ 32.5 µg/mL); MIC90 (Salmonella enterica [20]): 134 µM (≈ 83.9 µg/mL); Activity (Streptococcus pneumoniae [8]): inactive; Activity (Escherichia coli [11]): inactive; deltaG (DNA [21]): -35.4 kJ/mol; Activity (Streptococcus pyogenes [12]): inactive
4 | Cc1ccc(CSCCC(=O)Nc2cc(C(=O)Nc3cc(C(=O)NCCCN4CCOCC4)n(C)c3)n(C)c2)cc1 | 2.57 | Non-Toxic |  |  |  | 7.01 |  |  |  | 
5 | Cn1cc(NC(=O)c2cc(NC(=O)CCSc3ccc4ccccc4c3)cn2C)cc1C(=O)NCCCN1CCOCC1 | 7.46 |  |  |  | inactive | 7.01 |  |  | 20 | 
6 | Cn1cc(NC(=O)c2cc(NC(=O)c3ccc(C#Cc4ccccc4)cc3)cn2C)cc1C(=O)NCCCN1CCOCC1 | 97.7 |  | 74 | 98 |  | 7.01 | 22 | 30 | 20 | inhibition at 100 µM (Salmonella enterica [1]): 90%; inhibition at 100 µM (Serratia marcescens [5]; ATCC 13880, 2 h): 80%; MIC90 (Escherichia coli [7]): 106 µM (≈ 62.8 µg/mL); MIC90 (Serratia marcescens [23]): 88 µM (≈ 52.2 µg/mL); MIC50 (Salmonella enterica [20]): 58 µM (≈ 34.4 µg/mL); MIC90 (Salmonella enterica [20]): 117 µM (≈ 69.1 µg/mL); inhibition at 100 µM (Streptococcus pneumoniae [8]): 97%; MIC90 (Streptococcus pyogenes [10]): 51 µM (≈ 30.2 µg/mL); inhibition at 100 µM (Escherichia coli [11]): 40%; inhibition at 100 µM (Streptococcus pyogenes [12]): 83%; MIC90 (Streptococcus pneumoniae [15]): 53 µM (≈ 31.4 µg/mL)
7 | CN(C)CCCNC(=O)c1cc(NC(=O)c2cc(NC(=O)c3cc(NC(=O)c4cscn4)cn3C)cn2C)cn1C |  |  |  |  |  | 9.3 |  |  | 20 | 
8 | Cc1ccc(CSCCC(=O)Nc2cc(C(=O)Nc3cc(C(=O)NCCCN(C)C)n(C)c3)n(C)c2)cc1 | 2.57 |  |  |  |  | 9.3 |  |  | 20 | 
9 | CN(C)CCCNC(=O)c1cc(NC(=O)c2cc(NC(=O)c3ccc(C#Cc4ccccc4)cc3)cn2C)cn1C | 126 |  |  | 59 |  | 9.3 |  |  |  | 
10 | CN(C)CCCNC(=O)c1cc(NC(=O)c2cc(NC(=O)c3cc(NC(=O)c4nccn4C)cn3C)cn2C)cn1C | -3.79 | Toxic |  |  |  | 9.3 |  |  |  | 
11 | CC(C)c1sc(NC(=O)c2cc(NC(=O)c3cc(NC(=O)c4nccn4C)cn3C)cn2C)nc1C(=O)NCCCN(C)C | 24.1 |  | 90 | 63 | inactive | 9.3 | 18 | 77 | 20 | TdeltaS (DNA [16]): -50.9 kJ/mol; inhibition at 100 µM (Salmonella enterica [1]): 60%; K (DNA [17]): 1.42 10^6/M; deltaH (DNA [18]): -86.1 kJ/mol; Activity (DNA [19]): Active; MIC50 (Salmonella enterica [20]): 64 µM (≈ 39.9 µg/mL); MIC90 (Salmonella enterica [20]): 101 µM (≈ 62.8 µg/mL); inhibition at 100 µM (Streptococcus pneumoniae [8]): 60%; MIC50 (Bacillus cereus [9]): 28 µM (≈ 17.4 µg/mL); MIC90 (Bacillus cereus [9]): 33.7 µM (≈ 21 µg/mL); Activity (Escherichia coli [11]): inactive; deltaG (DNA [21]): -35.2 kJ/mol; Activity (Streptococcus pyogenes [12]): inactive; MIC90 (Streptococcus pneumoniae [15]): 67 µM (≈ 41.7 µg/mL)
